One molecule from patent publication US20150352134A1, “COMPOSITION FOR TOPICAL SKIN APPLICATION CONTAINING GINSENOSIDE F2 DERIVED FROM HYDROPONIC GINSENG” (AMOREPACIFIC CORPORATION, priority 2012, published 2015) can be followed below.

Molecules are shown by their SMILES.

As usually defined, the inhibition is the drop in the measured response relative to a control, in per cent.

In test [1] the test system is Aspergillus niger. Description: Antibacterial effect, MIC. The test is classed as cell-based. Conditions: 48 hours, 25° C. The method, then:
(§1) The antibacterial testing is carried out in order to evaluate the antibacterial effect of ginsenoside F2. The detailed testing method is as follows. Staphylococcus aureus, Escherichia coli, and pseudomonas aeruginosa strains are cultured with a tryptic soy broth, and candida albicans and aspergillus niger strains are cultured with sabouraud dextrose broth. The test bacterial liquid is the 1/100 (1/10 for candida albicans strain) diluted solution of the culture medium diluted with each medium. For aspergillus niger, the test bacterial liquid is the spore suspension prepared to 2×10^8 cfu/ml. 0.15 ml of the test bacterial liquid is added to 15 ml of each culture medium to prepare a well-blended diluted solution. 16 μl of the sample is put into each well on the first row of a 96-well plate, and 184 μl of the diluted solution is added to each well on the first row. Then, 100 μl of the diluted solution is put into each of the other wells. The mixed solution of the first row is sufficiently stirred, and 100 μl of the mixed solution is added to each well on the second row of the 96-well plate and stirred sufficiently. 100 μl of the mixed solution on the second row is taken and added to each well on the third row to achieve two-fold serial dilution. Straphylococcus aureus, Escherichia coli, and Pseudomonas aeruginosa strains are cultured in a thermostat container at 32°, and Candida albicans and Aspergillus niger strains are cultured in a thermostat container at 25° C. 48 hours later, the cell proliferation is determined by the turbidity index and microscopic observation to determine the minimum inhibitory concentration (MIC).

For test [2], the system named is Pseudomonas aeruginosa. Description: Antibacterial effect, MIC. The test is classed as cell-based. As to conditions: 48 hours, 32°. On the procedure:
as §1

For test [3], the system named is 3T3-L1 cells. Description: Lipogenesis inhibition in 3T3-L1 cells (Sudan III dyeing). The test is classed as cell-based, mouse. As to conditions: caffeine 50 μM; visual evaluation of fat accumulation. The method, then: The mouse fibroblast cell line, 3T3-L1 cells are immobilized in a 6-well culture plate filled with Dulbecco's modified eagle's medium (DMEM) (GIBCO BRL, Life Technologies, Inc.) containing 10% fetal bovine serum (FBS) at an amount of 1×10^5 cells/well. After 2 days, the used medium is replaced with a new DMEM (containing 10% FBS) medium to culture the cells for 2 days. […] After 5 days, the used DMEM medium is replaced with a normal medium (DMEM containing 10% FBS). The cells are cultured and observed until they are morphologically changed into fat cells. In order to evaluate the ginsenoside F2 in regards to the inhibitory effect on the fat accumulation in the fat cells, the completely differentiated 3T3-L1 fat cells are dyed with Sudan III ([…], Sigma-Aldrich). The fat cells are immobilized with 4% para-formaldehyde (pH 7.2) at the room temperature in a phosphate buffer solution. The fat cells are washed with phosphate-buffered saline (PBS) and then dyed with Sudan III. The picture of the fat cells is taken for visual evaluation. The control uses a medium using neither a test substance nor a comparative substance. The comparative control group is treated with 50 μM caffeine. The fat accumulation inhibitory ability is evaluated based on the degree of dying. The degree of dying is graded +++, ++, +, and - in the decreasing order.

The test system of test [4] is prostaglandin generation in macrophagocytes collected from the abdominal cavity of a mouse. Description: Prostaglandin generation inhibition in LPS-treated macrophagocytes (ELISA). The test is classed as cell-based. Conditions: 100 μl of ginsenoside F2. On the procedure:
The inflammatory effect is evaluated in terms of the inhibitory effect on prostaglandin generation. Ginsenoside F2 is used to measure the effect on macrophagocytes. Firstly, macrophagocytes collected from the abdominal cavity of a mouse are treated with aspirin to have the final concentration of 500 µM, causing irreversible inhibition on the activity of cyclooxygenase (COX) remaining in the macrophagocytes. Then, 100 μl of the suspension is put in each well of a 96-well culture plate and cultured in an incubator under the conditions of 5% CO2 and 37° C. for 2 hours to immobilize the macrophagocytes on the surface of the container. Subsequently, the immobilized macrophagocytes are washed with PBS three times and used in the inflammatory improvement test. […] Then, the macrophagocytes are treated with 100 μl of ginsenoside F2, and the isolated prostaglandin is quantitatively analyzed by way of ELISA (Enzyme-Linked ImmunoSorbent Assey).
In this regard, the prostaglandin generation inhibitory activity of the ginsenoside F2 is determined by the reduced amount of prostaglandin generated in the LPS-treated group in comparison with the case of the control in terms of the percentage amount of the prostaglandin decreased by treatment with LPS and the sample, while the difference in the amount of the generated prostaglandin between the LPS-treated group and the control group is set to 100%.
A general note: ELISA stands for enzyme-linked immunosorbent assay.

Test [5] deals with T1, PAR-2 (Homo sapiens, UniProt P55085).
T1 construct: host or cells: HaCaT keratinocytes
T1 sequence (P55085 26-397): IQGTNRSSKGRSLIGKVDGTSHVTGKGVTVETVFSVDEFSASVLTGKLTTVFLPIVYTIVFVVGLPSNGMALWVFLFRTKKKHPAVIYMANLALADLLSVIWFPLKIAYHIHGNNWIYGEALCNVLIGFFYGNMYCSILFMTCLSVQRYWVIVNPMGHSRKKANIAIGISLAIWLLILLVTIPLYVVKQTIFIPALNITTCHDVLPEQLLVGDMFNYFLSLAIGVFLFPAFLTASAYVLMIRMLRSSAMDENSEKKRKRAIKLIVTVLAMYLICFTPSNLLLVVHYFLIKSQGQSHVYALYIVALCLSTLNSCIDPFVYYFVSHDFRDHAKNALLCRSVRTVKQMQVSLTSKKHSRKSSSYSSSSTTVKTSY
Description: Itching relief: inflow of Ca2+ into HaCaT keratinocytes after trypsin or PAR-2 activated peptide. The test is classed as cell-based. On the procedure:
One day before the testing, keratinocytes (HaCaT purchased from ATCC) are injected into a 96-well plate at a rate of 4×10^4 cells/well and cultured in an incubator under conditions of 5% CO2 and 37° C. for 24 hours. After 24 hours, the culture plate is washed with HBSS (Hank's Balanced Salt Solution) buffer twice, and a reaction buffer (2 μM Fluo-4-AM, 20% pluronic acid, 2.5 mM probenecid) is added to the cells. The culture plate is kept in an incubator under conditions of 5% CO2 and 37° C. for 30 minutes and allowed to react at the room temperature for 30 minutes. Then, the culture plate is washed with HBSS buffer twice, and the cells are treated with ginsenoside F2 at a concentration (%) as given in Table 25.
After completion of the reaction for 10 minutes, the cells are treated with 2 U/ml trypsin or 5 μM PAR-2 activated peptide (SLIGKV), and then the change of Ca^2+ concentration in the cells for 80 seconds is measured. The measurement method uses FlexStation3® (Molecular Device, U.S.A.). The difference between minimum and maximum flex values for 80 seconds after treatment with 2 U/ml trypsin or 5 μM PAR-2 activated peptide (SLIGKV) in combination with ginsenoside F2 is compared with the difference between minimum and maximum flex values for 80 seconds after treatment with 2 U/ml trypsin or 5 μM PAR-2 activated peptide (SLIGKV) alone.

`CC(C)=CCC[C@](C)(O[C@@H]1O[C@H](CO)[C@@H](O)[C@H](O)[C@H]1O)[C@H]1CC[C@]2(C)[C@@H]1[C@H](O)C[C@@H]1[C@@]3(C)CC[C@H](O[C@@H]4O[C@H](CO)[C@@H](O)[C@H](O)[C@H]4O)C(C)(C)[C@@H]3CC[C@]12C` [Ginsenoside F2, ginsenoside F2]: in test [1], the “MIC (%) Aspergillus niger” value was greater than 2%. Further, the “MIC (%) Pseudomonas aeruginosa” value in test [2] was found to be 0.09%. Also, the “Degree of Sudan III staining (visual grade)” value in test [3] was “−”. Also, the “prostaglandin generation (Blank = 100%)” value in test [4] stood at 24.2%. The “Inhibition rate (%) on inflow of Ca^2+ into cells, Trypsin (2 U/ml)” value is on record as 23% in test [5] (0.05% ginsenoside F2), 30% in test [5] (0.1% ginsenoside F2) and 41% in test [5] (1.0% ginsenoside F2). The inhibition at 0.05 % in test [5] (HaCaT, 0.05% ginsenoside F2, read-out: Inhibition rate (%) on inflow of Ca^2+ into cells, PAR-2 activated peptide (5 μM)) was found to be 26%. In addition, the inhibition at 0.1 % in test [5] (HaCaT, 0.1% ginsenoside F2, read-out: Inhibition rate (%) on inflow of Ca^2+ into cells, PAR-2 activated peptide (5 μM)) came to 35%. Moreover, the inhibition at 0.5 % in test [5] (HaCaT, 0.5% ginsenoside F2, read-out: Inhibition rate (%) on inflow of Ca^2+ into cells, PAR-2 activated peptide (5 μM)) came to 40%. Further, in test [5] (HaCaT, 1.0% ginsenoside F2, read-out: Inhibition rate (%) on inflow of Ca^2+ into cells, PAR-2 activated peptide (5 μM)), the inhibition at 1 % is 47%.
